In paper PMC5759193, “The tankyrase inhibitor G007-LK inhibits small intestine LGR5^+ stem cell proliferation without altering tissue morphology” (Biological Research, 2018):
“And” between values parts separate entries of the source, which are not always exact repeats. Equal values may be shown once. Read-outs that look alike come from different tables or passages of the source.

Columns and labels:
[1] = system: LGR5^+ intestinal stem cells; test: Lineage tracing from LGR5^+ intestinal stem cells in duodenum (confocal microscopy, GFP IHC)
Procedure: Pieces of duodenum from mice that had undergone induced lineage tracing were fixed for 30 min in 4% paraformaldehyde (PFA) at room temperature, rinsed in PBS and immediately prepared for confocal microscopic analyses. Under a stereo microscope one row of intestinal villi was sectioned from the duodenal wall with a scalpel, rinsed in dH2O and embedded in Mowiol 4-88 (Sigma-Aldrich). The samples were examined with a Zeiss LSM 780 confocal microscope (Carl Zeiss MicroImaging GmbH) equipped with a multiline argon laser (458/488/514 nm), a 10 mW DPSS laser (561 nm), a 405-30 CW laser diode (405 nm), and a helium–neon (HeNe) laser (633 nm). The objective used was a Zeiss Plan-Apochromat 20×/0.8 DIC II. To calculate the numbers and volumes of the traced cells, confocal Z-stacks were analysed with Imaris 7.7.2 (Bitplane AG). A similar threshold for the segmentation of the traced cells was used in all Z-stacks examined. Image visualisations were performed with the basic Zeiss LSM 780 ZEN 2010 software, Photoshop CS4 (Adobe), and Imaris 7.7.2.
(§1) Mouse tissue was fixed overnight in 4% PFA, routinely processed and paraffin embedded. The paraffin-embedded tissue was sectioned at 3–4.5 μm. IHC staining was performed as previously described, with primary antibodies against β-catenin, green fluorescent protein (GFP), Lysozyme and Chromogranin A (rabbit monoclonal anti-β-catenin, Abcam ab32572; rabbit monoclonal anti-GFP, Cell Signaling Technology #2956; rabbit monoclonal anti-Lysozyme, Abcam ab108508; rabbit polyclonal anti-Chromogranin A, Abcam ab15160). For quantitative analyses of the IHC-stained tissue sections, the slides were scanned using the Hamamatsu Digital Slide Scanner NanoZoomer 2.0-HT C9600-13 and the number of positive and negative cells in up to 10 crypts or villi from each animal was counted manually. Periodic acid-Schiff (PAS) and Alcian blue staining was performed at the Department of Pathology, Oslo University Hospital, using standard protocols.

[2] = Tolerance: body mass, food consumption, clinical observations
Procedure: Medicilon Preclinical Research (Shanghai) LCC performed the pharmacokinetic studies; in brief, ICR mice (n = 25) from Sion-British SIPPR/BK Lab Animal Ltd, Shanghai were fed 100 mg G007-LK/kg chow enriched diet ad libitum for 3 consecutive days, body mass and food consumption was measured daily.
The body mass of the G007-LK-treated mice and the amount of consumed chow was measured 5 days per week. […] The mice were treated with G007-LK for 9 days by oral gavage or 21 days with the enriched diet.
The tolerance of G007-LK treatment in the experimental mice used in this study was further evaluated by short-term oral gavage treatment daily for 9 days with 10 or 50 mg G007-LK/kg body mass (Fig. 1d). […] For long-term treatment, mice were fed G007-LK-enriched diets, 100 or 1000 mg G007-LK/kg chow for up to 3 weeks (Fig. 1f).

[3] = cited from earlier work
canonical WNT signalling = test: β-catenin IHC of duodenal crypt base cells; type: in vivo, mice; conditions: gavage 10 mg/kg n = 2 and 50 mg/kg n = 1
Procedure: as §1
To verify that the administered doses of the tankyrase inhibitor had the expected effect on canonical WNT signalling, we stained duodenal tissue sections with a β-catenin-specific antibody. Nuclear localisation of β-catenin implied active canonical WNT signalling in vehicle (n = 3), (Fig. 4a) and G007-LK-treated (gavage 10 mg/kg, n = 2 and 50 mg/kg, n = 1) mice (Fig. 4b).

[4] = Pharmacokinetic analysis in plasma after G007-LK enriched chow; type: in vivo, ICR mice; conditions: for G007-LK Concentration in plasma, Mean: n=5; for Cmax: 0 h
Procedure: To address the pharmacokinetic properties of the tankyrase inhibitor G007-LK, ICR mice (n = 25) were treated for 3 days with a G007-LK-enriched diet, containing 100 mg G007-LK/kg chow. […] Pharmacokinetic parameters of G007-LK following administration of enriched diet for three consecutive days are listed in Table 1.

duodenal crypt cells = test: BrdU labelling of duodenal crypt cells; type: in vivo, mice; conditions: 100 mg/kg chow
Procedure: Slides with tissue sections were deparaffinised in xylene and re-hydrated through a graded series of ethanol. Heat-antigen retrieval was performed in 10 mM sodium-citrate buffer supplemented with 0.05% Tween 20 in a pressure cooker for 3 min and the slides were slowly cooled down. Slides were rinsed in washing buffer (PBS supplemented with 0.1% Tween), incubated with blocking buffer (PBS supplemented with 5% goat serum and 5% bovine serum albumin (BSA)) for 30 min at room temperature and rinsed in washing buffer. Primary antibodies (mouse monoclonal anti-BrdU, ThermoFisher #B35128; monoclonal anti-GFP, Cell Signalling #2956) diluted in blocking buffer were applied and incubated over night at 4 °C. […]
Mice were treated with BrdU (100 mg/kg body mass) 1 h before being sacrificed or with daily 1 mg BrdU injections for 7 days prior to sacrifice. […] BrdU-labelled cells were detected using a BrdU IHC kit (Abcam #125306) according to the manufacturer’s protocol, or using a monoclonal anti-BrdU antibody (ThermoFisher #B35128) and a Mouse-on-Mouse kit (Vector Laboratories #BMK-2202) according to the IHC protocol outlined above. The fraction of BrdU-labelled crypt cells was calculated.

duodenum = test: Duodenal morphology and cellular composition (H&E, PAS, Alcian blue, Lysozyme, Chromogranin A); type: in vivo, mice
Procedure: as §1
Similar data for the goblet cells were obtained by Alcian blue staining of acidic mucin (Additional file 5: Figure S4A–C).

[5] = ICR mice, 100 mg G007-LK/kg chow, 3 days
[6] = 6 months, 158 mg/kg chow, high fat-based diet
[7] = ICR mice, female, diet containing G007-LK 100 mg/kg chow 3 days, plasma

SMILES: CS(=O)(=O)c1ccc(-c2nnc(/C=C/c3nnc(-c4ccc(C#N)cc4)o3)n2-c2ccccc2Cl)nc1 [G007-LK]
- lineage tracing after stop of treatment (G007-LK-stop, reversibility) ([1]; 100 mg/kg chow 2 weeks, G007-LK-free diet 2 days before tamoxifen, tracing 7 days): presence of lineage traced cells throughout the entire length of the villi
- average ratio of crypts with GFP positive cells versus total counted crypts ([1]; GFP IHC, G007-LK treated mice n = 10 (control 0.51)): 0.39
- reduction of ratio of crypts with GFP positive cells versus total counted crypts, compared with control ([1]; GFP IHC, n = 10 treated, p = 0.05): 23%
- location of lineage traced cells when treatment starts after tamoxifen ([1]; Lgr5-EGFP-CreERT2;R26R-tdTomato mice, 100 mg/kg chow 6 days, started 24–36 h after tamoxifen): lineage traced cells were detected in the middle of the duodenal villi
- number of villi with traced cells vs control ([1]; duodenum): significantly (t test, p < 0.05) reduced
- number of lineage traced cells vs control ([1]; image analysis, duodenum): significant (t test, p < 0.05) reduction
- volume of lineage traced cells vs control ([1]; image analysis, duodenum): significant (t test, p < 0.05) reduction
- lineage tracing from LGR5^+ stem cells ([1]; long-term, 100 mg/kg chow, duodenum): markedly reduced lineage tracing
- changes in body mass [2, 5]: minor, not statistically significant
- food consumption [2, 5]: stable day 2 and 3 of the G007-LK enriched chow administration period, but statistically significant lower (t test, p < 0.05) the first day
- macroscopic phenotypes [2, 5]: No obvious macroscopic abnormal phenotypes were observed
- tolerability ([2]; daily doses up to approximately 200 mg/kg body mass, gavage or enriched diet): well tolerated
- glucose metabolism [3, 6]: improved glucose tolerance and insulin sensitivity
- toxic effects [3, 6]: did not lead to visible toxic effects
- small intestine toxicity ([3]; intermediate and high doses, up to 100 mg/kg body mass once daily 14–20 days, i.p. or orally): partially reversible focal necrosis and inflammation in the small intestine
- fraction of β-catenin-positive nuclei in crypt base cells vs control (canonical WNT signalling): significant (t test, p < 0.05) reduction
- G007-LK Concentration in plasma, single animals G1-1 to G1-5 ([4]; 0 h after diet removal): 773,96 ng/mL and 795,28 ng/mL and 756,04 ng/mL and 696,04 ng/mL and 791,2 ng/mL
- G007-LK Concentration in plasma, Mean ([4]; 0 h after diet removal): 762,5 ng/mL
- G007-LK Concentration in plasma, single animals G1-1 to G1-5 ([4]; 1 h after diet removal): 676,41 ng/mL and 696,8 ng/mL and 608,34 ng/mL and 669,24 ng/mL and 689,94 ng/mL
- G007-LK Concentration in plasma, Mean ([4]; 1 h after diet removal): 668,15 ng/mL
- G007-LK Concentration in plasma, single animals G1-1 to G1-5 ([4]; 2 h after diet removal): 639,46 ng/mL and 649,54 ng/mL and 610,19 ng/mL and 589,18 ng/mL and 567,65 ng/mL
- G007-LK Concentration in plasma, Mean ([4]; 2 h after diet removal): 611,2 ng/mL
- G007-LK Concentration in plasma, single animals G1-1 to G1-5 ([4]; 4 h after diet removal): 335,27 ng/mL and 378,3 ng/mL and 216,65 ng/mL and 474,86 ng/mL and 316,33 ng/mL
- G007-LK Concentration in plasma, Mean ([4]; 4 h after diet removal): 344,28 ng/mL
- G007-LK Concentration in plasma, single animals G1-1 to G1-5 ([4]; 12 h after diet removal): 52,75 ng/mL and 105,7 ng/mL and 112,65 ng/mL and 158,02 ng/mL and 111,12 ng/mL
- G007-LK Concentration in plasma, Mean ([4]; 12 h after diet removal): 108,05 ng/mL
- Cmax ([4]; ICR mice, diet containing G007-LK 100 mg/kg chow 3 days, plasma, read-out: Cmax): 1440 ± 80 nM
- AUC(0-t) [4, 7]: 4119.80 ng·h/mL
- AUC(0-∞) [4, 7]: 4770.32 ng·h/mL
- Cmax [4, 7]: 762.50 ng/mL
- t1/2 ([4]; ICR mice, female, diet containing G007-LK 100 mg/kg chow ad libitum 3 days, plasma, non-compartmental): 4.17 h
- F^a bioavailability ([4]; enriched chow vs IV data of ref 26, calculated from AUC(0-t)): 22.22%
- F^b bioavailability ([4]; enriched chow vs IV data of ref 26, calculated from AUC(0-∞)): 20.69%
- BrdU-labelled cells after daily BrdU for 7 days (duodenal crypt cells; n = 3): BrdU-labelled cells were observed at the tips of the villi
- ratio of BrdU positive crypt cells (duodenal crypt cells; n = 7, BrdU 1 h (control 0.28), p < 0.05): 0.14
- gross morphology of the duodenum (crypts and villi), H&E (duodenum; 9 days gavage 10 or 50 mg/kg, 21 days enriched diet 100 or 1000 mg/kg chow): maintained
- crypt abscesses (duodenum; distal duodenum and ileum): occasional crypt abscesses were observed
- morphology of epithelial cell layer (duodenum; distal duodenum and ileum): did not induce major morphological changes
- distribution of Paneth cells in crypt base (Lysozyme IHC) vs control (duodenum; duodenum): equal distribution pattern
- distribution of enteroendocrine cells (Chromogranin A IHC) vs control (duodenum; duodenum): comparable distribution patterns
- number of PAS stained goblet cells vs vehicle (duodenum; duodenum, gavage 50 mg/kg): no significant difference
- crypt:villus ratios, crypt duplication rates or size, goblet cell number or size, crypts per villus base (duodenum; proximal duodenum, gavage treated vs control): no statistically significant (t test, p > 0.05) changes
